Data published in publication PMC12677607, “Identification of a Pair of Linear or Cyclic Naturally Inspired Bifunctional Lipopeptide Antibiotics That Overcome Antimicrobial Resistance” (Advanced Science, 2025).
Bridge positions count the residues as written; N and C are the ends. Square brackets hold non-standard residues; d marks the D form. Peptide text beside a SMILES is read from it. * marks the point of attachment. Myristoyl = CCCCCCCCCCCCCC(=O)*; Orn = NCCC[C@H](N)C(=O)O; Dab = NCC[C@H](N)C(=O)O; Dap = NC[C@H](N)C(=O)O

What was measured:
[1] = test system: S. aureus USA300 Cls2A338stop; test: MIC against telomycin-resistant mutant; assay type: cell-based
Experimental: All MIC assays were performed two independent times (n = 2) in 96‐well plates using a broth micro‐dilution method. The lowest concentration of that inhibited visible microbial growth was recorded as the MIC value.
For most of bacterial strains, overnight cultures were diluted 5000‐fold in LB broth. For E. faecium and S. aureus, overnight cultures were diluted 1000‐ and 10000‐fold in LB broth, respectively. 100 µL of diluted cells was mixed with 100 µL of LB broth containing each peptide ranging from 64 to 0.125 µg mL^−1 at 2‐fold serial dilutions.
Overnight cultures S. aureus USA300 were diluted 10000‐fold in LB broth, and 100 µL of dilute cell suspension was added to 96‐well plates containing 100 µL serially diluted aquicidine C4, telomycin, and daptomycin (with 15 mM CaCl2). Overnight cultures K. pneumoniae CRKP5452 were diluted 5000‐fold in LB broth, and 100 µL of dilute cell suspension was added to 96‐well plates containing 100 µL serially diluted aquicidine L and colistin. After an incubation of 24 h at 37 °C, the MIC value was determined. […] The MIC value was recorded as described above, and the process was repeated daily for 21 days. Experiments were performed two independent times (n = 2).
Single‐nucleotide polymorphisms (SNPs) for telomycin‐, daptomycin‐ or colistin‐resistant mutants were identified using SNIPPY by mapping DNBSEQ‐seq reads to the reference genome of S. aureus USA300 or K. pneumoniae CRKP5452.

[2] = test system: methicillin-resistant S. aureus USA300; test: Mouse peritonitis-sepsis model; assay type: in vivo; details: S. aureus USA300, ICR mice, single s.c. dose 1 h after infection, doses 50, 100, 150 mg kg^−1, n = 5
Experimental: (§1) Six‐week‐old female ICR mice were used in all experiments and housed in a temperature‐controlled room (25 °C) with 12‐h light/dark cycle and 30% relative humidity. Mice were observed twice daily for mortality and morbidity. Abnormal clinical signs were recorded if observed and totally monitored for five days. The detailed methods for the mouse peritonitis‐sepsis model were as follows.
Methicillin‐resistant S. aureus USA300 was cultured in LB broth at 37 °C for 16 h and diluted with 7% type II porcine stomach mucin with 0.2 mM FeNH4‐citrate. S. aureus cell cultures were diluted to provide a challenge inoculum of 2.5 × 10^8 CFU in 0.5 mL and then administered into each mouse via intraperitoneal injection. 25 mice were randomly grouped into five per cohort (n = 5) and each cohort was given a single dose of either vehicle (20% solutol), aquicidine C4 at 50, 100, or 150 mg kg^−1, and vancomycin at 50 mg kg^−1 1 hr after infection via subcutaneous injection.

[3] = test system: meropenem-resistant A. baumannii 1104008; test: Mouse peritonitis-sepsis model; assay type: in vivo; details: A. baumannii 1104008, neutropenic ICR mice, s.c. 1 h after infection and every 12 h up to 36 h, doses 12.5, 25, 50 mg kg^−1, n = 5
Experimental: as §1
(§2) Meropenem‐resistant A. baumannii 1104008 or K. pneumoniae CRKP 5452 was cultured in LB broth at 37 °C fro 16 h and diluted with 5% type II porcine stomach mucin and 0.9% NaCl. All mice were rendered […] via intraperitoneal injection of cyclophosphamide at 150 mg/kg on day‐4 and day‐1 before infection. A. baumannii or K. pneumoniae cell cultures were diluted to provide a challenge inoculum of 5.0 × 10^7 CFU in 0.5 mL and then administered into each mouse via intraperitoneal injection. 25 mice were randomly grouped into five per cohort (n = 5) and each cohort was given a single dose of either vehicle (20% solutol), aquicidine L at 12.5, 25, or 50 mg kg^−1, and colistin at 12.5 mg kg^−1 1 h after infection via subcutaneous injection and repeated every 12 h up to 36 h (totally four injections).

[4] = test system: meropenem-resistant K. pneumoniae CRKP 5452; test: Mouse peritonitis-sepsis model; assay type: in vivo; details: K. pneumoniae CRKP5452, neutropenic ICR mice, s.c. 1 h after infection and every 12 h up to 36 h, doses 12.5, 25, 50 mg kg^−1, n = 5
Experimental: as §1, §2

Row | SMILES | antibacterial activity (MIC) S. aureus USA300 Cls2A338stop ([1]; Figure S127b, telomycin-resistant mutant) [µg/mL] | increase in MIC against resistant mutant compared to wild type ([1]; S. aureus USA300 Cls2^A338stop vs wild type) [fold] | minimal dose required for 100% survival [2] [mg/kg] | minimal dose required for 100% survival [3] [mg/kg] | minimal dose required for 100% survival [4] [mg/kg] | resistant mutants by direct plating (E. coli)
1 | CCCCCCCCCCCCCC(=O)N[C@@H](CN)C(=O)N[C@H](C(=O)N[C@@H](CC(C)C)C(=O)N[C@H]1COC(=O)[C@H](Cc2ccccc2)NC(=O)[C@H](CC(N)=O)NC(=O)[C@H](CCCN)NC(=O)[C@H]([C@@H](C)CC)NC(=O)[C@H](Cc2ccccc2)NC(=O)[C@H](CN)NC(=O)[C@H](CCN)NC1=O)[C@@H](C)O [synAQU5-C4] (Myristoyl-[Dap]TLS[Dab][Dap]FI[Orn]NF; ester 4-C) | 16 | 4 | 100 |  |  | 
2 | CCCCCCCCCCCCCC(=O)N[C@@H](CN)C(=O)N[C@H](C(=O)N[C@@H](CC(C)C)C(=O)N[C@@H](CO)C(=O)N[C@@H](CCN)C(=O)N[C@@H](CN)C(=O)N[C@@H](Cc1ccccc1)C(=O)N[C@H](C(=O)N[C@@H](CCCN)C(=O)N[C@@H](CC(N)=O)C(=O)N[C@@H](Cc1ccccc1)C(=O)O)[C@@H](C)CC)[C@@H](C)O [synAQU5-L] (Myristoyl-[Dap]TLS[Dab][Dap]FI[Orn]NF-OH) |  |  |  | 50 | 50 | failed to identify E. coli resistant mutants
